Patent publication US11780839B2, “Compounds for treating Huntington's disease” (PTC THERAPEUTICS, INC., priority 2018, dated 2023)

System: Endogenous Huntingtin Protein
Experiment: Endogenous Huntingtin Protein Assay (ELISA-based Meso Scale Discovery electrochemiluminescence)
Assay type: cell-based
Conditions: MSD electrochemiluminescence, Table 1
Procedure, shortened: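 Huntingtin was captured overnight at 4 °C on plates coated with 1 μg/mL MW1 (polyQ-expanded) or MAB2166 antibody and BSA-blocked. Detection used a rabbit monoclonal and then a SULFO-TAG goat anti-rabbit antibody (0.25 μg/mL, 1 h each, room temperature). Signal was read by electrochemiluminescence.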

Row | Compound | IC50 [nM]
1 | COCC(C)NC1CCN(c2ncc(-c3ccc(-c4cn[nH]c4)cc3O)nn2)C1 (stereo not shown) [Cpd 336, 2-(3-{3-[(1-methoxypropan-2-yl)amino]pyrrolidin-1-yl}-1,2,4-triazin-6-yl)-5-(1H-pyrazol-4-yl)phenol] | ≤ 100
2 | Oc1cc(-c2cn[nH]c2)ccc1-c1cnc(N2CC3CNCC3C2)nn1 (stereo not shown) [Cpd 337, 2-[3-(hexahydropyrrolo[3,4-c]pyrrol-2(1H)-yl)-1,2,4-triazin-6-yl]-5-(1H-pyrazol-4-yl)phenol] | ≤ 100
3 | CC(C)NC1CCN(c2ncc(-c3ccc(-n4cc(F)cn4)cc3O)nn2)C1 (stereo not shown) [Cpd 338, 5-(4-fluoro-1H-pyrazol-1-yl)-2-(3-{3-[(propan-2-yl)amino]pyrrolidin-1-yl}-1,2,4-triazin-6-yl)phenol] | 100 to 500
4 | Oc1cc(-c2cn[nH]c2)ccc1-c1cnc(N2CCC3(CCCN3)C2)nn1 (stereo not shown) [Cpd 339, 2-[3-(1,7-diazaspiro[4.4]nonan-7-yl)-1,2,4-triazin-6-yl]-5-(1H-pyrazol-4-yl)phenol] | ≤ 100
5 | CC1(NC2CCN(c3ncc(-c4ccc(-c5cn[nH]c5)cc4O)nn3)C2)CC1 (stereo not shown) [Cpd 340, 2-(3-{3-[(1-methylcyclopropyl)amino]pyrrolidin-1-yl}-1,2,4-triazin-6-yl)-5-(1H-pyrazol-4-yl)phenol] | ≤ 100
6 | COCC(C)(C)NC1CCN(c2ncc(-c3ccc(-c4cn[nH]c4)cc3O)nn2)C1 (stereo not shown) [Cpd 341, 2-(3-{3-[(1-methoxy-2-methylpropan-2-yl)amino]pyrrolidin-1-yl}-1,2,4-triazin-6-yl)-5-(1H-pyrazol-4-yl)phenol] | ≤ 100
7 | CN(c1cnc(-c2ccc(-c3ccc4c(cnn4C)c3)cc2O)nn1)C1CC(C)(C)NC(C)(C)C1 [Cpd 342, 5-(1-methyl-1H-indazol-5-yl)-2-{6-[methyl(2,2,6,6-tetramethylpiperidin-4-yl)amino]-1,2,4-triazin-3-yl}phenol] | 100 to 500
8 | CN(c1cnc(-c2ccc(-c3ccn(C)n3)cc2O)nn1)C1CC(C)(C)NC(C)(C)C1 [Cpd 343, 5-(1-methyl-1H-pyrazol-3-yl)-2-{6-[methyl(2,2,6,6-tetramethylpiperidin-4-yl)amino]-1,2,4-triazin-3-yl}phenol] | ≤ 100
9 | CN(c1ncc(-c2ccc(-c3cc(C#N)c4nccn4n3)cc2O)nn1)C1CC(C)(C)NC(C)(C)C1 [Cpd 344, 6-(3-hydroxy-4-{3-[methyl(2,2,6,6-tetramethylpiperidin-4-yl)amino]-1,2,4-triazin-6-yl}phenyl)imidazo[1,2-b]pyridazine-8-carbonitrile] | ≤ 100
10 | Oc1cc(-c2cn[nH]c2)ccc1-c1cnc(N[C@H]2CCNC[C@H]2F)nn1 [Cpd 345, 2-(3-{[(3R,4S)-3-fluoropiperidin-4-yl]amino}-1,2,4-triazin-6-yl)-5-(1H-pyrazol-4-yl)phenol] | 100 to 500
11 | CN[C@@H]1CN(c2ncc(-c3ccc(-c4cn[nH]c4)cc3O)nn2)C[C@H]1OC [Cpd 346, 2-{3-[(3R,4R)-3-methoxy-4-(methylamino)pyrrolidin-1-yl]-1,2,4-triazin-6-yl}-5-(1H-pyrazol-4-yl)phenol] | > 500
12 | CC(C)N[C@H]1CCN(c2ncc(-c3ccc(-c4cn[nH]c4)cc3O)nn2)C1 [Cpd 347, 2-(3-{(3S)-3-[(propan-2-yl)amino]pyrrolidin-1-yl}-1,2,4-triazin-6-yl)-5-(1H-pyrazol-4-yl)phenol] | ≤ 100
13 | CC(C)N[C@@H]1CCN(c2ncc(-c3ccc(-c4cn[nH]c4)cc3O)nn2)C1 [Cpd 348, 2-(3-{(3R)-3-[(propan-2-yl)amino]pyrrolidin-l-yl}-1,2,4-triazin-6-yl)-5-(1H-pyrazol-4-yl)phenol] | ≤ 100
14 | Oc1cc(-c2cn[nH]c2)ccc1-c1cnc(N2CCC(NC34CC(C3)C4)C2)nn1 (stereo not drawn) [Cpd 349, 2-(3-{3-[(bicyclo[1.1.1]pentan-1-yl)amino]pyrrolidin-l-yl}-1,2,4-triazin-6-yl)-5-(1H-pyrazol-4-yl)phenol] | 100 to 500
15 | CNC1CCN(c2ncc(-c3ccc(-c4cnc(C)o4)cc3O)nn2)C1 (stereo not drawn) [Cpd 350, 2-{3-[3-(methylamino)pyrrolidin-l-yl]-1,2,4-triazin-6-yl}-5-(2-methyl-1,3-oxazol-5-yl)phenol] | ≤ 100
16 | CN(c1ncc(-c2ccc(-c3cc(CN)c4nccn4n3)cc2O)nn1)C1CC(C)(C)NC(C)(C)C1 [Cpd 351, 5-[8-(aminomethyl)imidazo[1,2-b]pyridazin-6-yl]-2-{3-[methyl(2,2,6,6-tetramethylpiperidin-4-yl)amino]-1,2,4-triazin-6-yl}phenol] | ≤ 100
17 | CC1(C)CC(Nc2ncc(-c3ccc(-c4ncco4)cc3O)nn2)CC(C)(C)N1 [Cpd 352, 5-(1,3-oxazol-2-yl)-2-{3-[(2,2,6,6-tetramethylpiperidin-4-yl)amino]-1,2,4-triazin-6-yl}phenol] | ≤ 100
18 | Oc1cc(-c2cn[nH]c2)ccc1-c1cnc(N2CCC3(CNCCO3)C2)nn1 (stereo not shown) [Cpd 353, 2-[3-(6-oxa-2,9-diazaspiro[4.5]decan-2-yl)-1,2,4-triazin-6-yl]-5-(1H-pyrazol-4-yl)phenol] | 1000 to 3000
19 | Oc1cc(-c2cn[nH]c2)ccc1-c1cnc(N2CCC3(CCNC3)C2)nn1 (stereo not shown) [Cpd 354, 2-[3-(2,7-diazaspirol{4.4}nonan-2-yl)-1,2,4-triazin-6-yl]-5-(1H-pyrazol-4-yl)phenol] | ≤ 100

Row | Compound | IC50 [nM]
20 | CC(C)(C)N[C@H]1CCN(c2ncc(-c3ccc(-c4cn[nH]c4)cc3O)nn2)C1 [Cpd 355, 2-{3-[(3S)-3-(tert-butylamino)pyrrolidin-l-yl]-1,2,4-triazin-6-yl}-5-(1H-pyrazol-4-yl)phenol] | ≤ 100
21 | CC(C)(C)N[C@@H]1CCN(c2ncc(-c3ccc(-c4cn[nH]c4)cc3O)nn2)C1 [Cpd 356, 2-{3-[(3R)-3-(tert-butylamino)pyrrolidin-l-yl]-1,2,4-triazin-6-yl}-5-(1H-pyrazol-4-yl)phenol] | ≤ 100
22 | Oc1cc(-c2cn[nH]c2)ccc1-c1cnc(N2CCC(NC3CCCC3)C2)nn1 (stereo not drawn) [Cpd 357, 2-{3-[3-(cyclopentylamino)pyrrolidin-l-yl]-1,2,4-triazin-6-yl}-5-(1H-pyrazol-4-yl)phenol] | ≤ 100
23 | CNC1CCN(c2ncc(-c3ccc(-c4ncco4)cc3O)nn2)C1 (stereo not drawn) [Cpd 358, 2-{3-[3-(methylamino)pyrrolidin-l-yl]-1,2,4-triazin-6-yl}-5-(1,3-oxazol-2-yl)phenol] | 100 to 500
24 | CC1(C)CC(Nc2ncc(-c3ccc(-c4cn5ccncc5n4)cc3O)nn2)CC(C)(C)N1 [Cpd 359, 5-(imidazo[1,2-a]pyrazin-2-yl)-2-{3-[(2,2,6,6-tetramethylpiperidin-4-yl)amino]-1,2,4-triazin-6-yl}phenol] | ≤ 100
25 | CC1(C)CC(Nc2ncc(-c3ccc(-c4cn5ccccc5n4)cc3O)nn2)CC(C)(C)N1 [Cpd 360, 5-(imidazo[1,2-a]pyridin-2-yl)-2-{3-[(2,2,6,6-tetramethylpiperidin-4-yl)amino]-1,2,4-triazin-6-yl}phenol] | 100 to 500
26 | CC(C)NCC1CCN(c2ncc(-c3ccc(-c4cn[nH]c4)cc3O)nn2)C1 (stereo not drawn) [Cpd 361, 2-[3-(3-{[(propan-2-yl)amino]methyl}pyrrolidin-l-yl)-1,2,4-triazin-6-yl]-5-(1H-pyrazol-4-yl)phenol] | ≤ 100
27 | CC1(NC2CCN(c3ncc(-c4ccc(-c5cn[nH]c5)cc4O)nn3)C2)CCOCC1 (stereo not drawn) [Cpd 362, 2-(3-{3-[(4-methyloxan-4-yl)amino]pyrrolidin-l-yl}-1,2,4-triazin-6-yl)-5-(1H-pyrazol-4-yl)phenol] | ≤ 100
28 | CC(C)(C)NC1CCN(c2cnc(-c3ccc(-c4cn[nH]c4)cc3O)nn2)C1 (stereo not drawn) [Cpd 363, 2-{6-[3-(tert-butylamino)pyrrolidin-l-yl]-1,2,4-triazin-3-yl}-5-(1H-pyrazol-4-yl)phenol] | ≤ 100
29 | CNC1CCN(c2ncc(-c3ccc(-c4cc(SC)ncn4)cc3O)nn2)C1 (stereo not drawn) [Cpd 364, 2-{3-[3-(methylamino)pyrrolidin-l-yl]-1,2,4-triazin-6-yl}-5-[6-(methylsulfanyl)pyrimidin-4-yl]phenol] | 100 to 500
30 | CC(C)(C)NC1CCN(c2ncc(-c3ccc(-c4c[nH]nc4Cl)cc3O)nn2)C1 (stereo not drawn) [Cpd 365, 2-{3-[3-(tert-butylamino)pyrrolidin-l-yl]-1,2,4-triazin-6-yl}-5-(3-chloro-1H-pyrazol-4-yl)phenol] | ≤ 100
31 | CC(C)(C)NC1CCN(c2ncc(-c3ccc(-c4c[nH]nc4C#N)cc3O)nn2)C1 (stereo not drawn) [Cpd 366, 4-(4-{3-[3-(tert-butylamino)pyrrolidin-l-yl]-1,2,4-triazin-6-yl]-3-hydroxyphenyl)-1H-pyrazole-3-carbonitrile] | ≤ 100
32 | [2H]C([2H])([2H])n1cc(-c2ccc(-c3cnc(N4CCC(NC(C)(C)C)C4)nn3)c(O)c2)cn1 (stereo not drawn) [Cpd 367, 2-{3-[3-(tert-butylamino)pyrrolidin-l-yl]-1,2,4-triazin-6-yl}-5-[1-(^2H3)methyl-1H-pyrazol-4-yl]phenol] | ≤ 100
33 | CN(c1ncc(-c2ccc(-c3ccn(C)n3)c(O)c2O)nn1)C1CC(C)(C)NC(C)(C)C1 [Cpd 368, 3-(1-methyl-1H-pyrazol-3-yl)-6-{3-[methyl(2,2,6,6-tetramethylpiperidin-4-yl)amino]-1,2,4-triazin-6-yl}benzene-1,2-diol] | 100 to 500
34 | Oc1cc(-c2cn[nH]c2)ccc1-c1cnc(N2CCC3(CCCNC3)C2)nn1 (stereo not shown) [Cpd 369, 2-[3-(2,7-diazaspiro[4.5]decan-2-yl)-1,2,4-triazin-6-yl]-5-(1H-pyrazol-4-yl)phenol] | ≤ 100
35 | Oc1cc(-c2cn[nH]c2)ccc1-c1cnc(N2CC3CCNC3C2)nn1 (stereo not shown) [Cpd 370, 2-[3-(hexahydropyrrolo[3,4-b]pyrrol-5(1H)-yl)-1,2,4-triazin-6-yl]-5-(1H-pyrazol-4-yl)phenol] | ≤ 100
36 | OCCCNC1CCN(c2ncc(-c3ccc(-c4cn[nH]c4)cc3O)nn2)C1 (stereo not shown) [Cpd 371, 2-(3-{3-[(3-hydroxypropyl)amino]pyrrolidin-1-yl}-1,2,4-triazin-6-yl)-5-(1H-pyrazol-4-yl)phenol] | ≤ 100
37 | Oc1cc(-c2cn[nH]c2)ccc1-c1cnc(N2CCC(CNC3CCOCC3)C2)nn1 (stereo not shown) [Cpd 372, 2-[3-(3-{[(oxan-4-yl)amino]methyl}pyrrolidin-1-yl)-1,2,4-triazin-6-yl]-5-(1H-pyrazol-4-yl)phenol] | ≤ 100
